Read-outs that look alike come from different tables or passages of the source.
Columns and labels:
[1] = test system: pspA; assay: Amplification of pspA by PCR with oligonucleotides as 5' primers and 3' primer LSM2 (Example 11); set-up: species or system Streptococcus pneumoniae; conditions: 5′ primer in combination with 3′-primer LSM2, 14 strains
Experimental: These oligonucleotides were synthesized by Oligos, Etc.
PCR was done with an MJ Research, Inc., Programmable Thermal Cycler (Watertown, Mass.), using approximately 10 ng of genomic pneumococcal DNA as template with designated 5′ and 3′ primer pairs. The sample was brought to a total volume of 50 μl containing a final concentration of 50 mM KCl, 10 mM Tris-HCl (pH 8.3), 1.5 mM MgCl2, 0.01% gelatin, 0.5 μM of each primer, 200 μM of each deoxynucleoside triphosphate, and 2.5 U of Taq DNA polymerase. The samples were denatured at 94° C. for 2 minutes and subjected to 10 cycles consisting of: 1 min at 94° C., 2 min at 50° C., and 3 min at 72° C., followed by 20 cycles of: 1 min at 94° C., 2 min at 60° C., and 3 min at 72° C. After 30 total cycles, the samples were held at 72° C. for an additional 5 min prior to cooling to 4° C. The amplicons were then analyzed by agarose gel electrophoresis.

[2] = test system: S. pneumoniae isolates MC25, MC26, MC27, MC28; format: cell-based, Streptococcus pneumoniae

Substance	Amplified/Tested [1]	Percent Amplified [1] [%]	Penicillin MIC ([2]; isolate MC25) [µg/mL]	Penicillin MIC ([2]; isolate MC26) [µg/mL]	Penicillin MIC ([2]; isolate MC27) [µg/mL]	Penicillin MIC ([2]; isolate MC28) [µg/mL]
LSM111 (DNA CCGGATCCAGCTCCTGCACCAAAAC; chemistry not given here)	14/14	100	–	–	–	–
Penicillin	–	–	1	4	1	2

From patent US6500613B1, “Pneumococcal surface proteins and uses thereof” (priority 1995, dated 2002)
